# In the METLIN SMRT retention time set (Domingo-Almenara et al. 2019):
# Test: gradient 5% acetonitrile 3 min, to 50% in 2 min, to 85% in 15 min, held 3 min, 100 µL/min
# Settings: column: Zorbax Extend-C18 2.1 x 50 mm; eluents: water / acetonitrile, 0.1% formic acid
# How it was run: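 Retention times of pure standards were taken from adduct peaks that were selected by computer and manually inspected. Over 3 months, mixtures of ~100 molecules were run by HPLC–quadrupole time-of-flight mass spectrometry in positive and negative ionization mode. The Zorbax Extend-C18 column (2.1 × 50 mm, 1.8 μm) ran at 100 μL/min in water and acetonitrile, each containing 0.1% formic acid, with 40 μL dead volume and 900 μL dwell volume.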
row,SMILES,RP-LC retention time
1,CCCc1noc(-c2ccc(-n3ncc(C(=O)N4CCSCC4)c3C)nc2)n1,967 s
2,CCc1nc(-c2csc(S(=O)(=O)N3CCCC(C(=O)NCc4ccc(C)o4)C3)c2)no1 (stereo not drawn),946 s
3,COc1cc(NC(=O)CN2C(=O)CN=C(c3ccccc3Cl)c3cc(Cl)ccc32)cc(OC)c1,990 s
4,COc1ccc(CNC(=O)C2CCN(c3cncnc3N3CCOCC3)CC2)cc1,651 s
5,CC(C)NC(=O)c1cc(N2CCCC2)nc2ccccc12,594 s
6,COc1ccc(-n2c(=O)c(C(=O)Nc3ccc(F)c(Cl)c3)c(O)c3cccnc32)cc1,1370 s
7,Cc1ncc([N+](=O)[O-])n1CC(C)O (stereo not drawn),609 s
8,Cc1nn(CC(=O)N2CCCCCC2)c(=O)c2c(-n3cccc3)n(-c3ccccc3)nc12,978 s
9,COc1ccc(-n2c(=O)c(C(=O)Nc3ccccc3Cl)c(O)c3cccnc32)cc1,1270 s
10,NC(=O)C(=O)c1cn(CC(=O)NC2CCCCC2)c2ccccc12,743 s
11,Cc1ccsc1CN1CCc2nc(N3CCN(c4ccc(F)cc4)CC3)ncc2C1,734 s
12,Cc1ccc(CNC(=O)C2(C)CN(S(C)(=O)=O)CC(=O)N2c2ccc(C)c(Cl)c2)cc1 (stereo not drawn),874 s
13,COc1ccccc1NC(=O)Nc1c(C)nc2ccc(C)cn2c1=O,616 s
14,CCCN1CCN(C(=O)C2CC(=O)N(c3ccc4c(c3)CCN4C(=O)CC)C2)CC1 (stereo not drawn),566 s
15,COCCN1CCC(N2CCN(S(=O)(=O)c3ccccc3Cl)CC2)C1=O (stereo not drawn),567 s
16,Cc1ccccc1Cn1c(CN2CCC(C(=O)NCCC(C)C)CC2)cc2ccccc21,822 s
17,CCC(=O)N1CCc2c([nH]c3ccc(Cl)cc23)C12C(=O)N(C)c1ccccc12 (stereo not drawn),901 s
18,COc1cc(-c2noc(-c3nn(-c4cccc(C)c4)ccc3=O)n2)cc(OC)c1OC,888 s
19,CCOc1ccc(-c2cn3ccn(-c4ccc(OC)cc4)c(=O)c3n2)cc1,830 s
20,COc1ccccc1Oc1c(C)oc2cc(OCC(=O)N[C@H](C)C(=O)O)ccc2c1=O,710 s
21,Cc1ccc(-c2noc(C3CC(=O)N(c4ccc(C)c(F)c4)C3)n2)cc1 (stereo not drawn),1110 s
22,COc1ccc(NC(=O)N2CCN(Cc3nc4ccc(Cl)cc4o3)CC2)cc1,713 s

row,SMILES,RP-LC retention time
1,Cn1cc(C(=O)N2CCN(C3CCCCC3)CC2)c2cccnc21,632 s
2,Cc1sc(NC(=O)c2ccccc2Br)nc1-c1ccc2c(c1)NC(=O)C(C)O2 (stereo not drawn),943 s
3,CC(C)c1nc(-n2cccc2)sc1C(=O)Nc1ccccc1F,1270 s
4,CCN1CCn2cc(S(=O)(=O)N3CCN(c4cccc(C)c4)CC3)cc2C1=O,858 s
5,COC(=O)c1ccc2c(=O)n(-c3ccc(Cl)cc3)c(N3CCN(C4CCCCC4)CC3)nc2c1,754 s
6,CCOC(=O)CC(NC(=O)N1CCC2(CC1)NC(=O)c1ccccc1O2)c1ccccc1 (stereo not drawn),782 s
7,COCCN1C(=O)CCc2cc(NC(=O)c3cncc(Br)c3)ccc21,716 s
8,O=C(Cn1cnc2ccccc2c1=O)N[C@H](C(=O)O)c1ccccc1,642 s
9,Cc1cccc(C(=O)N2C[C@@H](F)C[C@H]2C(=O)N2CCOCC2)c1,620 s
10,CCn1cc(S(=O)(=O)Nc2ccc(F)c(F)c2)c2cccnc21,848 s
11,CCn1nc(N2CCCC(NC(=O)C3(c4ccccc4)CCCC3)C2)ccc1=O (stereo not drawn),792 s
12,Cc1nc(C(=O)NC2CCCCC2)c(C)o1,767 s
13,CCC1CN(C(=O)N2CCC(C(=O)NCCN3CCN(C)CC3)CC2)c2ccccc2O1 (stereo not drawn),606 s
14,CCc1nc2cc(-c3noc(-c4cccc5[nH]ccc45)n3)ccc2o1,1040 s
15,Cc1cc(S(=O)(=O)N2CCc3nn(C)c(=O)n3CC2)ccc1Cl,744 s
16,O=C(NCCc1ccco1)c1ccc2c(c1)NC(=O)C1CCCCN21 (stereo not drawn),739 s
17,CCOc1ccc(-c2noc(Cc3nnc(-c4ccc(F)cc4)o3)n2)cc1,1050 s
18,Brc1ccc(-c2noc(Cc3nc(-c4ccccc4)cs3)n2)cc1,1350 s
19,CC(C)(C)NC(=O)NC1CCN(C(=O)c2ccccc2)C1 (stereo not drawn),683 s
20,Cc1ccc(NC(=O)Cn2nc(N3CCCC(C)C3)c3ccccc3c2=O)c(C)c1 (stereo not drawn),1150 s
21,O=C1NC2CCCCC2C2=NC(CN3CCN(c4ccccc4)CC3)CN12 (stereo not drawn),655 s
22,CCOC(=O)c1ccc(NC(=O)Cn2c(=O)n(-c3ccccc3)c(=O)c3c2cc(C)n3C)cc1,854 s

row,SMILES,RP-LC retention time
1,Cc1csc(-c2cc(S(=O)(=O)NCCC(C)C)cn2CC(=O)N2CCCCC2)n1,1010 s
2,COc1ccc(C2Cn3nnc(C(=O)NC4CCCCCC4)c3CO2)cc1 (stereo not drawn),1040 s
3,O=C(NCc1ccccn1)C1CCCN(c2nccnc2Sc2ccccc2)C1 (stereo not drawn),687 s
4,Cc1ccc(-c2noc(-c3sccc3NC(=O)c3ccnn3C)n2)cc1,1380 s
5,CN(C)C[C@@H]1CN(c2ccncn2)C[C@H]1NC(=O)c1ccc2ccccc2n1,595 s
6,Cc1cc(C(=O)N2CC(c3nc4ccccc4[nH]3)C2)no1,555 s
7,O=C(c1cccs1)N1CCCC(c2nn[nH]n2)C1 (stereo not drawn),627 s
8,CCOC(=O)c1nn(-c2cc(C(=O)OC)cc(C(=O)OC)c2)cc1O,769 s
9,Cc1ccc(C(=O)COc2ccc(N3C(=O)C4CCC(C)CC4C3=O)cc2)cc1C (stereo not drawn),1120 s
10,Cc1cccc(NC(=O)Cn2c(-c3cnccn3)nc(C)c(C)c2=O)c1C,743 s
11,Cn1cc(C2=CCN(C(=O)NC3CCCC3)CC2)c2cccnc21,754 s
12,O=C(Nc1ccc(N2CCN(C3CCCCC3)C2=O)nc1)c1ccc2c(c1)OCO2,808 s
13,COc1cccc(C(=O)N2CCc3c(c(-c4nnc(-c5ccccc5Cl)o4)nn3C)C2)c1OC,822 s
14,O=C(Cn1cccc1-c1nnc(C2CCC2)o1)NCc1ccc2c(c1)OCO2,836 s
15,CCN(CCNC(=O)c1cccc2c1SCCC2=O)Cc1ccccc1,627 s
16,COc1ccccc1-c1noc(Cn2nc(-c3ccc4c(c3)OCO4)ccc2=O)n1,877 s
17,O=C(Nc1c(-c2ccc(F)cc2)nc2ccccn12)c1ccc(Br)cc1,716 s
18,Cc1cc(NC(=O)CSc2nnc(C(C)C)c3cnn(-c4ccc(C)c(C)c4)c23)no1,845 s
19,Cc1cc(C)cc(NC(=O)N2CCN(c3cc(-c4cccnc4)[nH]n3)CC2)c1,644 s
20,Cc1cccc(N2CCN(C(=O)CC3COc4ccccc4NC3=O)CC2)c1C (stereo not drawn),861 s
21,Cc1ccccc1C1CCCN1C(=O)c1nn(C)cc1Cl (stereo not drawn),849 s
22,COc1ccccc1NC(=O)Cn1c(C)nc2c(sc3nc(-c4ccccc4)ccc32)c1=O,1090 s

row,SMILES,RP-LC retention time
1,Cc1cc(-c2ccc(S(=O)(=O)N3CCC(C(=O)NCc4ccccc4C)CC3)o2)n[nH]1,816 s
2,CCc1nc2cc(-c3noc(-c4cnccn4)n3)ccc2o1,830 s
3,CC(C)CC(=O)Nc1nc(-c2ccc3c(c2)N(C)C(=O)CO3)cs1,830 s
4,Cc1ccc(S(=O)(=O)N2CCC(CN3CCCCCC3)CC2)cc1Cl,721 s
5,Cc1cnn(Cc2nc(-c3ccc(NC(=O)c4cc(C)on4)cc3)oc2C)c1,876 s
6,O=C(NC1CCCCCCC1)C1CCN(C(=O)c2cc(-c3cccnc3)n[nH]2)CC1,651 s
7,Cc1[nH]c(C)c(S(=O)(=O)N2CCC(C(=O)N3CCCCC3C)CC2)c1C(=O)N1CCCCC1 (stereo not drawn),724 s
8,COc1ccc(OCC(=O)Nc2c(C(=O)N3CCN(c4ccccn4)CC3)oc3ccccc23)cc1,741 s
9,Cc1ccccc1CNC1=NCCNC12CCN(S(=O)(=O)c1ccc(Cl)cc1)CC2,753 s
10,Cc1ccccc1NC(=O)N1CCN(c2nc(N3CCOCC3)nc(-n3ccnc3)n2)CC1,603 s
11,O=C(Cc1c(F)cccc1Cl)N1C[C@@H]2C[C@H]1C[C@@H]2NS(=O)(=O)c1ccccc1,852 s
12,Cc1nc(Nc2ccc(Br)cn2)sc1C(=O)N1CCN(C)CC1,606 s
13,CCCNC(=O)N(C1CCOCC1)C1CCN(C(=O)Nc2c(F)cccc2F)CC1,685 s
14,CCCCN(Cc1ccco1)C(=O)C1CCCN(c2ncnc3c2nc2n3CCCCC2)C1 (stereo not drawn),949 s
15,CN1C(=O)c2ccccc2Sc2ccc(NC(=O)N3CCN(c4ccccn4)CC3)cc21,645 s
16,Cc1ccc(Nc2c(-c3cc(Br)ccc3F)nc3ccc(Cl)cn23)cc1,1080 s
17,Cc1ccc(C)c(N2CCN(c3ccnc(SCC(=O)Nc4ccccc4C)n3)CC2)c1,1010 s
18,Cc1nnc(-c2cn(CC(=O)Nc3ccc(Br)cc3)c3ccccc23)o1,888 s
19,CCn1cc(S(=O)(=O)N2C[C@@H](COC)[C@H](c3ccncc3)C2)cn1,625 s
20,CCCN1C(=O)c2c(C(=O)NCc3ccccc3F)ncn2CC1(C)C(=O)NCc1ccccc1 (stereo not drawn),812 s
21,Cc1ccccc1NC(=O)C1CCCN(c2ccc3cc(S(=O)(=O)N4CCCCC4)ccc3n2)C1 (stereo not drawn),835 s
22,Cc1cc2cc(CNC(=O)C(=O)c3c(C)[nH]c4ccccc34)ccc2[nH]1,1010 s
